Laboratory results as given in patent US7163700B2, “Amorphous drug beads” (Capricorn Pharma, Inc., priority 2001, dated 2007).

Assay: Dissolution test of amorphous Itraconazole drug beads versus crystalline Itraconazole (FIG. 1)
Format: physicochemical
Conditions: over the same time period
Source text: Quantities of Itraconazole and Pluronic™ F68 in a ratio of 9 parts Itraconazole to 1 part Pluronic™ F68 were melted separately in an oil bath. Once both components were completely melted, they were combined, emulsified with high shear, and poured onto a cold plate to cool rapidly.

Compound: CCC(C)n1ncn(-c2ccc(N3CCN(c4ccc(OCC5COC(Cn6cncn6)(c6ccc(Cl)cc6Cl)O5)cc4)CC3)cc2)c1=O (stereo not shown) [crystalline Itraconazole, 4-[4-[4-[4-[[2-(2,4-Dichlorophenyl)-2-(1H-1,2,4-triazol-1-ylmethyl)-1,3-dioxolan-4-yl]methoxy]phenyl]-1-piperazinyl]phenyl]-2,4-dihydro-2-(1-methylpropyl)-3H-1,2,4-triazol-3-one]
- dissolution rate (percent dissolution versus time): 20%
